This assay deals with T1, human alpha 7-wt nAChR (Homo sapiens, UniProt P36544).
T1 construct: expressed in transfected cells
The assay can be described thus: Ca2+ flux imaging (FDSS) (protocol B). It is filed as cell-based. The note with it: for EC50: read-out: pEC50 (converted); for Emax: read-out: % Efficacy. The method, then:
Example D.1 : Ca^2+ flux imaging (FDSS) (protocol B)
• a) Assay buffer Hanks buffered saline solution (HBSS, Invitrogen, Belgium), supplemented with 10 mM HEPES (Invitrogen, Belgium), CaCl2 to a final concentration of 5 mM, 0.1 % Bovine serum albumin (Sigma-Aldrich NV, Belgium). • b) Calcium-sensitive dye - Fluo-4AM Fluo-4AM (Molecular Probes, USA) was dissolved in DMSO containing 10% Pluronic acid (Molecular Probes, USA) to give a stock solution which was diluted in assay buffer supplemented with 5 mM probenicid (Sigma, Aldrich NV, Belgium) to give a final concentration of 2 µM • c) 384-well plates Black-sided, transparent bottomed 384 well plates coated with poly-D-lysine, PDL pre-coated (Coming, Incorporated, USA) • d) Calcium flux measurement A Functional drug screening system (FDSS, Hamamatsu) was used to measure intracellular free-calcium flux signals.
Monolayers of human alpha 7-wt nAChR-expressing cells were grown in black-sided, transparent bottomed 384 well plates coated with PDL for 24 hours prior to loading with a fluorescent calcium indicator, fluo-4AM for up to 120 minutes.
PAM activity was detected in real time by applying the compounds to be tested to the loaded cells along with an alpha 7 nicotinic receptor agonist during constant monitoring of cellular fluorescence in a FDSS. Compounds giving peak fluorescent responses greater than the response due to agonist alone, were consideted to be alpha 7 nAChR PAMs. The alpha 7 nicotinic receptor agonist was choline, applied at a sub-maximal concentration of 100 µM. In a further setting of the present invention the compounds were applied prior to the alpha 7 nicotinic receptor agonist, in a particular 10 minutes prior to the agonist.
A control response to choline was calculated on each plate from the difference in peak in fluorescence in wells receiving either choline or assay buffer alone. Compounds of the present invention were tested at a concentration range from 0.01 µM to 30 µM. Compounds were considered to have an interesting activity when they potentiated the choline signal at least with 200 % when tested at a concentration of 30 µM (the efficacy of 100 µM choline was defined as 100% in the absence of a PAM). An EC50 (or pEC50) was determined as a concentration relating to half the maximal effect, when a clear sigmoidal curve with top plateau was obtained.
A general note: Calcium flux is commonly read through the fluorescence of an indicator in the cells.

Read-outs that look alike come from different tables or passages of the source.

T1 sequence (P36544 23-502): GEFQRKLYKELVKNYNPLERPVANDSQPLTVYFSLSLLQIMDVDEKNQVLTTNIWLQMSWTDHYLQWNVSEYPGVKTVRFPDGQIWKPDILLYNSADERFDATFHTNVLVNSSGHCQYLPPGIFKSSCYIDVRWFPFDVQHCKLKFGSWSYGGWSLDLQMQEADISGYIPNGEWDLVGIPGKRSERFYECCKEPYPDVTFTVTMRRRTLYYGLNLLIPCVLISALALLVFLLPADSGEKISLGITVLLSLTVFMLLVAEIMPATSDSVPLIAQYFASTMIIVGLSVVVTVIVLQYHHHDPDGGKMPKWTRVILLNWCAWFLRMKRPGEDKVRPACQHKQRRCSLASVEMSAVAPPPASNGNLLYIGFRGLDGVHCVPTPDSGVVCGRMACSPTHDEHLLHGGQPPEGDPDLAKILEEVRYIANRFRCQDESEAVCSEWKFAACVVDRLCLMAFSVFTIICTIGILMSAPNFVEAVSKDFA

For `Cc1cc(-c2c(F)cc(N3CCCC(C(F)(F)F)C3)cc2CNC(=O)C2CC2)cc(C)n1` (centres unmarked) [Compound 97], the Emax amounted to 330%. Besides, where the note is “Ca2+ assay as described in D.1”, the EC50 is 0.0195 µM. For `Cc1cc(-c2ccc(N3CCO[C@H](C(F)(F)F)C3)c(F)c2CNC(=O)c2cc(C)on2)cc(C)n1` [Compound 67], for the setting “Ca2+ assay as described in D.1”, the EC50 is 0.347 µM.

In the case of `Cc1cc(-c2ccc(N3CCOCC3)cc2CNC(=O)c2cc(C)on2)cc(C)n1` [Compound 25], the Emax amounted to 654%. The EC50 (Ca2+ assay as described in D.1) is 6.17 µM.

Regarding `Cc1cc(-c2ccc(N3C[C@@H](C)O[C@@H](C)C3)c(F)c2CNC(=O)CC2CC2)cc(C)n1` [Compound 37], the EC50 (Ca2+ assay as described in D.1) is 0.295 µM.

Take `Cc1cc(-c2c(F)cc(N3CCO[C@@H](C(F)(F)F)C3)cc2CNC(=O)CC(C)C)cc(C)n1` [Compound 101]: the EC50 (Ca2+ assay as described in D.1) is < 0.01 µM. Regarding `Cc1cc(-c2ccc(N3C[C@H](C(F)(F)F)C[C@H](C(F)(F)F)C3)cc2CNC(=O)C(C)C)cc(C)n1` [Compound 23], the Emax was 322%. For the setting “Ca2+ assay as described in D.1”, the EC50 is 0.0158 µM. In the case of `Cc1cc(-c2ccc(N3C[C@@H](C)O[C@@H](C)C3)c(F)c2CNC(=O)CCCC(F)(F)F)cc(C)n1` [Compound 44], the EC50 (Ca2+ assay as described in D.1) is 0.316 µM. On to `Cc1cc(-c2ccc(N3C[C@H](C(F)(F)F)C[C@H](C(F)(F)F)C3)cc2CNC(=O)c2cc(C)on2)cc(C)n1` [Compound 21], for which the Emax was found to be 541%. In addition, under “Ca2+ assay as described in D.1”, the EC50 is 0.126 µM. As to `Cc1cc(-c2ccc(N3C[C@@H](C)O[C@@H](C)C3)c(F)c2CNC(=O)C(C)C)cc(C)n1` [Compound 41], the EC50 (Ca2+ assay as described in D.1) was 0.575 µM.

For the molecule `Cc1cc(-c2ccc(N3CCO[C@H](C(F)(F)F)C3)c(F)c2CNC(=O)C2CC2)cc(C)n1` [Compound 69], for the setting “Ca2+ assay as described in D.1”, the EC50 is 0.776 µM.

As for `Cc1cc(-c2ccc(N3CCOCC3)cc2CNC(=O)c2ccc(F)cc2C)cc(C)n1` [Compound 27], the Emax was 419%. For the same molecule, the EC50 (Ca2+ assay as described in D.1) is 0.0575 µM.

Consider `Cc1cc(-c2ccc(N3C[C@@H](C)O[C@@H](C)C3)cc2CNC(=O)CC2CC2)ccn1` [Compound 13], for which the Emax is 915%. Further, the EC50 (Ca2+ assay as described in D.1) was 0.282 µM.

Consider `Cc1cc(-c2ccc(N3CCO[C@@H](C(F)(F)F)C3)c(F)c2CNC(=O)CC(C)C)cc(C)n1` [Compound 72], for which the EC50 (Ca2+ assay as described in D.1) is 0.0148 µM. Still for that read-out and setting: to `Cc1cc(-c2c(F)cc(N3C[C@@H](C)O[C@@H](C)C3)cc2CNC(=O)CC(C)C)ccn1` [Compound 92] belongs 0.0126 µM; to `CC(C)C(=O)NCc1cc(N2C[C@@H](C)O[C@@H](C)C2)ccc1-c1ccncc1` [Compound 15], 1.1 µM; to `Cc1cc(-c2c(F)cc(N3C[C@@H](C)O[C@@H](C)C3)cc2CNC(=O)CC2CCC2)cc(C)n1` [Compound 80], 0.00617 µM. Regarding `Cc1cc(-c2ccc(N3CCCC(C(F)(F)F)C3)cc2CNC(=O)CC2CC2)cc(C)n1` (centres unmarked) [Compound 35], the Emax worked out at 389%. Besides, the EC50 (Ca2+ assay as described in D.1) was 0.0263 µM.

Take `Cc1cc(-c2ccc(N3C[C@H](C(F)(F)F)C[C@H](C(F)(F)F)C3)cc2CNC(=O)c2conc2C)cc(C)n1` [Compound 19]: the Emax was 266%. The EC50 (Ca2+ assay as described in D.1) is 0.0501 µM. On to `Cc1cc(-c2ccc(N3C[C@@H](C)O[C@@H](C)C3)c(F)c2CNC(=O)C2CC2)cc(C)n1` [Compound 42], for which the EC50 (Ca2+ assay as described in D.1) is 1.17 µM. Take `Cc1cc(-c2c(F)cc(N3CCCC(C(F)(F)F)C3)cc2CNC(=O)c2cc(C)on2)cc(C)n1` (centres unmarked) [Compound 94]: the Emax was found to be 428%. Moreover, the EC50 (Ca2+ assay as described in D.1) is 0.195 µM.

With `Cc1cc(-c2ccc(N3CCO[C@H](C(F)(F)F)C3)c(F)c2CNC(=O)c2conc2C)cc(C)n1` [Compound 66], the Emax is 649%. The EC50 (Ca2+ assay as described in D.1) was 0.398 µM. `Cc1cc(-c2ccc(N3CCCC(C(F)(F)F)C3)cc2CNC(=O)c2cc(C)on2)cc(C)n1` (centres unmarked) [Compound 34]: the Emax came out at 405%. Moreover, for the setting “Ca2+ assay as described in D.1”, the EC50 is 0.537 µM.

Consider `Cc1cc(-c2ccc(C3C[C@@H](C)O[C@@H](C)C3)c(F)c2CNC(=O)CC2CC2)cc(C)n1` (relative stereo) [Compound 53], for which, under “Ca2+ assay as described in D.1”, the EC50 was 0.457 µM. For `Cc1nocc1C(=O)NCc1cc(N2C[C@@H](C)O[C@@H](C)C2)ccc1-c1ccncc1` [Compound 17], the Emax came to 681%. The EC50 (Ca2+ assay as described in D.1) was 1.66 µM.

For the molecule `Cc1cc(-c2ccc(N3CCO[C@H](C(F)(F)F)C3)c(F)c2CNC(=O)C(C)C)cc(C)n1` [Compound 65], for the setting “Ca2+ assay as described in D.1”, the EC50 was 0.575 µM.

On to `Cc1cc(-c2ccc(N3CCO[C@@H](C(F)(F)F)C3)c(F)c2CNC(=O)C(C)C)cc(C)n1` [Compound 56], for which the EC50 (Ca2+ assay as described in D.1) was 0.155 µM. Turning to `Cc1cc(-c2ccc(N3CCOCC3)cc2CNC(=O)C2CC2)cc(C)n1` [Compound 30], the Emax (Ca2+ assay as described in D.1) was determined as 260%. As to `Cc1cc(-c2ccc(N3CCOCC3)cc2CNC(=O)c2cc(C)on2)ccn1` [Compound 142], under “Ca2+ assay as described in D.1”, the Emax is 545%.

For the molecule `Cc1cc(-c2c(F)cc(N3CCCC(C(F)(F)F)C3)cc2CNC(=O)CC2CC2)cc(C)n1` (centres unmarked) [Compound 95], the Emax was 427%. The EC50 (Ca2+ assay as described in D.1) was 0.0275 µM. With `Cc1cc(-c2ccc(N3CC4CCC(C3)O4)cc2CNC(=O)CC2CC2)cc(C)n1` [Compound 130], the Emax (Ca2+ assay as described in D.1) came to 95.5%. In the case of `Cc1cc(-c2c(F)cc(N3C[C@@H](C)O[C@@H](C)C3)cc2CNC(=O)c2cc(C)on2)ccn1` [Compound 90], the EC50 (Ca2+ assay as described in D.1) was 0.525 µM.

In the case of `Cc1cc(-c2c(F)cc(N3C[C@@H](C)O[C@@H](C)C3)cc2CNC(=O)CC(C)C)cc(C)n1` [Compound 83], the Emax amounted to 906%. The EC50 (Ca2+ assay as described in D.1) is 0.00708 µM. For `Cc1cc(-c2ccc(C3C[C@@H](C)O[C@@H](C)C3)c(F)c2CNC(=O)C2CC2)cc(C)n1` (relative stereo) [Compound 54], the EC50 (Ca2+ assay as described in D.1) is 1.58 µM. On to `Cc1cc(-c2ccc(C3C[C@@H](C)O[C@@H](C)C3)c(F)c2CNC(=O)CC(C)C)cc(C)n1` (relative stereo) [Compound 55], for which the Emax stood at 890%. In addition, the EC50 (Ca2+ assay as described in D.1) is 0.229 µM. As for `Cc1cc(-c2c(F)cc(N3C[C@@H](C)O[C@@H](C)C3)cc2CNC(=O)CC(F)(F)F)cc(C)n1` [Compound 77], where the note is “Ca2+ assay as described in D.1”, the Emax was 136%. Turning to `Cc1cc(-c2c(F)cc(N3CCCC(C(F)(F)F)C3)cc2CNC(=O)c2conc2C)cc(C)n1` (centres unmarked) [Compound 98], the Emax (Ca2+ assay as described in D.1) is 119%. `Cc1cc(-c2ccc(N3CCCC(C(F)(F)F)C3)cc2CNC(=O)c2conc2C)cc(C)n1` (centres unmarked) [Compound 32]: the Emax (Ca2+ assay as described in D.1) stood at 72.4%. `Cc1cc(-c2c(F)cc(N3CCCC(C(F)(F)F)C3)cc2CNC(=O)C(C)C2CC2)cc(C)n1` (centres unmarked) [Compound 93]: the Emax came to 736%. Where the note is “Ca2+ assay as described in D.1”, the EC50 was 0.0363 µM. For the molecule `Cc1cc(-c2ccc(N3C[C@@H](C)O[C@@H](C)C3)cc2CNC(=O)c2cc(C)on2)ccn1` [Compound 10], the EC50 (Ca2+ assay as described in D.1) was 1.23 µM.

Turning to `Cc1cc(-c2ccc(N3C[C@@H](C)O[C@@H](C)C3)cc2CNC(=O)c2ccc(F)cc2C)ccn1` [Compound 11], the Emax turned out to be 912%. The EC50 (Ca2+ assay as described in D.1) is 0.00933 µM. Turning to `Cc1cc(-c2ccc(N3C[C@H](C(F)(F)F)C[C@H](C(F)(F)F)C3)cc2CNC(=O)CC2CC2)cc(C)n1` [Compound 22], the Emax was 458%. The EC50 (Ca2+ assay as described in D.1) was 0.0162 µM.

Consider `Cc1cc(-c2ccc(N3CCO[C@@H](C(F)(F)F)C3)c(F)c2CNC(=O)CC2CC2)cc(C)n1` [Compound 59], for which the EC50 (Ca2+ assay as described in D.1) was 0.0832 µM. Take `Cc1cc(-c2c(F)cc(N3C[C@@H](C)O[C@@H](C)C3)cc2CNC(=O)c2conc2C)cc(C)n1` [Compound 76]: the Emax amounted to 572%. For the same molecule, the EC50 (Ca2+ assay as described in D.1) was ~0.038 µM.

The values above are taken from patent EP2678315B1, “(Pyridin-4-yl)benzylamides as allosteric modulators of alpha 7 nAChR” (Janssen Pharmaceutica, N.V., priority 2011, dated 2012).
